Key:
[1] = test system: MET; assay: MET biochemical kinase assay; set-up: species or system human; concentration or dose not given beside the values
How it was run: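 Immunocaptured MET autophosphorylation, read colorimetrically (TMB) via HRP anti-phosphotyrosine antibody. Kinase reaction initiated with buffer containing ATP and divalent metals after compound addition to plate-bound receptor from lysates.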

[2] = target: T1, FLK-1 receptor (Mus musculus, UniProt P35918); assay: FLK-1 ELISA (kinase activity of the FLK-1 receptor in FLK-1/NIH3T3 cells, VEGF stimulated); format: cell-based
T1 construct: expressed in transfected cells; host or cells: NIH3T3 C7#3
How it was run: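 An ELISA using affinity-purified rabbit anti-FLK-1 antiserum on anti-rabbit IgG-coated plates measured VEGF-stimulated FLK-1 kinase activity. NIH3T3 C7#3 cells carrying FLK-1 were serum-starved (0.1% FBS) overnight, then exposed to compound (final 1:200 dilution, 0.5% DMSO) for two hours at 37 °C.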

T1 sequence (P35918 20-1345): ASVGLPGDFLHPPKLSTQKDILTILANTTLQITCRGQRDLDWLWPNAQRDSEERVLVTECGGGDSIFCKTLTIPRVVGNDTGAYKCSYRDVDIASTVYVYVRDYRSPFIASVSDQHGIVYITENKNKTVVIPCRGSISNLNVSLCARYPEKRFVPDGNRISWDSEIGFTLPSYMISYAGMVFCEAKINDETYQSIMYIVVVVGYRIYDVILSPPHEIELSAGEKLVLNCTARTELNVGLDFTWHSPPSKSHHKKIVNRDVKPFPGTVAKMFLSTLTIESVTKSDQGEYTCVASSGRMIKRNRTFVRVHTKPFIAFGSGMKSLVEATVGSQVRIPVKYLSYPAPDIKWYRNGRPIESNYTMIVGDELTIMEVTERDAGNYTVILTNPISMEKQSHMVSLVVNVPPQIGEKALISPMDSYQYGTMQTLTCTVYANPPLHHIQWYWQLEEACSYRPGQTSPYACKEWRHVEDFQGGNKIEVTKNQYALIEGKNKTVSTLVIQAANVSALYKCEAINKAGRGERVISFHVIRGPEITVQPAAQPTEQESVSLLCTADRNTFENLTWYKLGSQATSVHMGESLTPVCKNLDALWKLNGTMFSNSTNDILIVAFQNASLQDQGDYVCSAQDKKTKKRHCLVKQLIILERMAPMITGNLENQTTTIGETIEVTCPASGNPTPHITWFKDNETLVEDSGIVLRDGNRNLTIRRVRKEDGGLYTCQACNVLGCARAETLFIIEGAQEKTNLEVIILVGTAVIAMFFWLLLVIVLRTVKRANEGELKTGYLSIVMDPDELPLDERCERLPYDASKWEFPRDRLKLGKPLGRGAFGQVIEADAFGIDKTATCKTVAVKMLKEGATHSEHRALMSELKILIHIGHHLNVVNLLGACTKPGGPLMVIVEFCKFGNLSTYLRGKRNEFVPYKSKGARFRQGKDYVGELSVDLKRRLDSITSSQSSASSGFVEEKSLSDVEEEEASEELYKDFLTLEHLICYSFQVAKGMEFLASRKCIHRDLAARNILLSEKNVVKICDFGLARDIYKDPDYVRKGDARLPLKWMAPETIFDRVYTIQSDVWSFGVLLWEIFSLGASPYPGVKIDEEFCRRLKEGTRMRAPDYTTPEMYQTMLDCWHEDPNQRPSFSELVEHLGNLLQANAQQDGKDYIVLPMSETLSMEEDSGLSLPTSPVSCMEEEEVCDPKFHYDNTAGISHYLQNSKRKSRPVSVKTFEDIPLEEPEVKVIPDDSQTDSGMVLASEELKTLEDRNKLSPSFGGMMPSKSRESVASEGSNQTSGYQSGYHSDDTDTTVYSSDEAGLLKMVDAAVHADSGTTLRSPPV

SMILES: CCOc1ccccc1C=C1C(=O)Nc2c(Br)cc(Br)cc21 [10717/A02]
- Met Kinase % Inhibition [1]: 46.1%
- Fik Kinase %Inhibition [2]: 0.1%

SMILES: Cc1c(Br)ccc2c1C(=Cc1cccn1C)C(=O)N2 [10717/C04]
- Met Kinase % Inhibition [1]: 25.0%
- Fik Kinase %Inhibition [2]: -0.8%

SMILES: Cc1c(Br)ccc2c1C(=Cc1ccc(F)cc1)C(=O)N2 [10717/C05]
- Met Kinase % Inhibition [1]: 44.6%
- Fik Kinase %Inhibition [2]: -2.3%

SMILES: Cc1c(Br)ccc2c1C(=Cc1c[nH]c3ccccc13)C(=O)N2 [10717/C06]
- Met Kinase % Inhibition [1]: 44.1%
- Fik Kinase %Inhibition [2]: 7.6%

SMILES: Cc1ccc(C=C2C(=O)Nc3ccc(Br)c(C)c32)s1 [10717/C07]
- Met Kinase % Inhibition [1]: 16.5%
- Fik Kinase %Inhibition [2]: 1.6%

SMILES: Cc1c(Br)ccc2c1C(=Cc1ccc(Br)cc1)C(=O)N2 [10717/C08]
- Met Kinase % Inhibition [1]: 27.3%
- Fik Kinase %Inhibition [2]: 7.0%

SMILES: Cc1c(Br)ccc2c1C(=Cc1ccc[nH]1)C(=O)N2 [10717/C09]
- Met Kinase % Inhibition [1]: 47.7%
- Fik Kinase %Inhibition [2]: 77.1%

SMILES: COc1cccc(O)c1C=C1C(=O)Nc2ccc(Br)c(C)c21 [10717/C10]
- Met Kinase % Inhibition [1]: 22.8%
- Fik Kinase %Inhibition [2]: -8.0%

SMILES: Cc1[nH]c(C=C2C(=O)Nc3ccc(Br)c(C)c32)c(Br)c1Br [10717/C11]
- Met Kinase % Inhibition [1]: 71.8%
- Fik Kinase %Inhibition [2]: 4.6%

SMILES: CNS(=O)(=O)c1ccc2c(c1)C(=Cc1ccc(OC)c(OC)c1)C(=O)N2 [10720/D04]
- Met Kinase % Inhibition [1]: 23.6%
- Fik Kinase %Inhibition [2]: 15.6%

SMILES: CNS(=O)(=O)c1ccc2c(c1)C(=Cc1ccccc1O)C(=O)N2 [10720/D05]
- Met Kinase % Inhibition [1]: 9.8%
- Fik Kinase %Inhibition [2]: 4.8%

SMILES: CNS(=O)(=O)c1ccc2c(c1)C(=Cc1ccccc1)C(=O)N2 [10720/D06]
- Met Kinase % Inhibition [1]: 31.8%
- Fik Kinase %Inhibition [2]: 10.1%

SMILES: CNS(=O)(=O)c1ccc2c(c1)C(=Cc1ccc(SC)s1)C(=O)N2 [10720/D07]
- Met Kinase % Inhibition [1]: 36.2%
- Fik Kinase %Inhibition [2]: 11.8%

SMILES: CNS(=O)(=O)c1ccc2c(c1)C(=Cc1c(C)cc(O)cc1O)C(=O)N2 [10720/D08]
- Met Kinase % Inhibition [1]: 42.1%
- Fik Kinase %Inhibition [2]: 3.3%

SMILES: CCOc1cc(C=C2C(=O)Nc3ccc(S(=O)(=O)NC)cc32)ccc1O [10720/D09]
- Met Kinase % Inhibition [1]: 62.8%
- Fik Kinase %Inhibition [2]: 5.8%

SMILES: CNS(=O)(=O)c1ccc2c(c1)C(=Cc1cc(OC)ccc1O)C(=O)N2 [10720/D10]
- Met Kinase % Inhibition [1]: 51.0%
- Fik Kinase %Inhibition [2]: -6.6%

SMILES: CNS(=O)(=O)c1ccc2c(c1)C(=Cc1ncc[nH]1)C(=O)N2 [10720/D11]
- Met Kinase % Inhibition [1]: 23.9%
- Fik Kinase %Inhibition [2]: 9.8%

SMILES: O=C1Nc2ccc(S(=O)(=O)Nc3ccc(C(F)(F)F)cc3)cc2C1=Cc1c(F)cc(F)cc1F [10720/E02]
- Met Kinase % Inhibition [1]: 18.0%
- Fik Kinase %Inhibition [2]: 5.7%

SMILES: COc1cc(O)ccc1C=C1C(=O)Nc2ccc(S(=O)(=O)Nc3ccc(C(F)(F)F)cc3)cc21 [10720/E03]
- Met Kinase % Inhibition [1]: 54.9%
- Fik Kinase %Inhibition [2]: 34.3%

SMILES: COc1ccc(C=C2C(=O)Nc3ccc(S(=O)(=O)Nc4ccc(C(F)(F)F)cc4)cc32)cc1OC [10720/E04]
- Met Kinase % Inhibition [1]: 46.7%
- Fik Kinase %Inhibition [2]: 18.4%

SMILES: O=C1Nc2ccc(S(=O)(=O)Nc3ccc(C(F)(F)F)cc3)cc2C1=Cc1ccccc1O [10720/E05]
- Met Kinase % Inhibition [1]: 55.4%
- Fik Kinase %Inhibition [2]: -13.8%

SMILES: O=C1Nc2ccc(S(=O)(=O)Nc3ccc(C(F)(F)F)cc3)cc2C1=Cc1ccccc1 [10720/E06]
- Met Kinase % Inhibition [1]: 33.1%
- Fik Kinase %Inhibition [2]: 25.5%

SMILES: CSc1ccc(C=C2C(=O)Nc3ccc(S(=O)(=O)Nc4ccc(C(F)(F)F)cc4)cc32)s1 [10720/E07]
- Met Kinase % Inhibition [1]: 30.3%
- Fik Kinase %Inhibition [2]: 18.8%

SMILES: Cc1cc(O)cc(O)c1C=C1C(=O)Nc2ccc(S(=O)(=O)Nc3ccc(C(F)(F)F)cc3)cc21 [10720/E08]
- Met Kinase % Inhibition [1]: 55.1%
- Fik Kinase %Inhibition [2]: 2.5%

SMILES: CCOc1cc(C=C2C(=O)Nc3ccc(S(=O)(=O)Nc4ccc(C(F)(F)F)cc4)cc32)ccc1O [10720/E09]
- Met Kinase % Inhibition [1]: 43.4%
- Fik Kinase %Inhibition [2]: 11.5%

SMILES: COc1ccc(O)c(C=C2C(=O)Nc3ccc(S(=O)(=O)Nc4ccc(C(F)(F)F)cc4)cc32)c1 [10720/E10]
- Met Kinase % Inhibition [1]: 23.1%
- Fik Kinase %Inhibition [2]: -4.1%

SMILES: O=C1Nc2ccc(S(=O)(=O)Nc3ccc(C(F)(F)F)cc3)cc2C1=Cc1ncc[nH]1 [10720/E11]
- Met Kinase % Inhibition [1]: -10.4%
- Fik Kinase %Inhibition [2]: 9.3%

SMILES: O=C1Nc2ccc(S(=O)(=O)N3CCOCC3)cc2C1=Cc1c(F)cc(F)cc1F [10720/F02]
- Met Kinase % Inhibition [1]: 17.8%
- Fik Kinase %Inhibition [2]: 9.1%

SMILES: COc1cc(O)ccc1C=C1C(=O)Nc2ccc(S(=O)(=O)N3CCOCC3)cc21 [10720/F03]
- Met Kinase % Inhibition [1]: 44.1%
- Fik Kinase %Inhibition [2]: 10.6%

SMILES: COc1ccc(C=C2C(=O)Nc3ccc(S(=O)(=O)N4CCOCC4)cc32)cc1OC [10720/F04]
- Met Kinase % Inhibition [1]: 43.1%
- Fik Kinase %Inhibition [2]: 10.6%

SMILES: O=C1Nc2ccc(S(=O)(=O)N3CCOCC3)cc2C1=Cc1ccccc1O [10720/F05]
- Met Kinase % Inhibition [1]: 39.8%
- Fik Kinase %Inhibition [2]: -3.6%

SMILES: O=C1Nc2ccc(S(=O)(=O)N3CCOCC3)cc2C1=Cc1ccccc1 [10720/F06]
- Met Kinase % Inhibition [1]: 21.9%
- Fik Kinase %Inhibition [2]: 11.9%

SMILES: CSc1ccc(C=C2C(=O)Nc3ccc(S(=O)(=O)N4CCOCC4)cc32)s1 [10720/F07]
- Met Kinase % Inhibition [1]: 64.6%
- Fik Kinase %Inhibition [2]: 4.6%

SMILES: Cc1cc(O)cc(O)c1C=C1C(=O)Nc2ccc(S(=O)(=O)N3CCOCC3)cc21 [10720/F08]
- Met Kinase % Inhibition [1]: 36.2%
- Fik Kinase %Inhibition [2]: -4.1%

SMILES: CCOc1cc(C=C2C(=O)Nc3ccc(S(=O)(=O)N4CCOCC4)cc32)ccc1O [10720/F09]
- Met Kinase % Inhibition [1]: 49.2%
- Fik Kinase %Inhibition [2]: 5.9%

SMILES: COc1ccc(O)c(C=C2C(=O)Nc3ccc(S(=O)(=O)N4CCOCC4)cc32)c1 [10720/F10]
- Met Kinase % Inhibition [1]: 42.8%
- Fik Kinase %Inhibition [2]: -2.6%

SMILES: O=C1Nc2ccc(S(=O)(=O)N3CCOCC3)cc2C1=Cc1ncc[nH]1 [10720/F11]
- Met Kinase % Inhibition [1]: 1.6%
- Fik Kinase %Inhibition [2]: 5.0%

SMILES: O=C1Nc2ccc(CCCl)cc2C1=Cc1c(F)cc(F)cc1F [10720/G02]
- Met Kinase % Inhibition [1]: 20.1%
- Fik Kinase %Inhibition [2]: 5.0%

SMILES: COc1cc(O)ccc1C=C1C(=O)Nc2ccc(CCCl)cc21 [10720/G03]
- Met Kinase % Inhibition [1]: 42.1%
- Fik Kinase %Inhibition [2]: 2.6%

SMILES: COc1ccc(C=C2C(=O)Nc3ccc(CCCl)cc32)cc1OC [10720/G04]
- Met Kinase % Inhibition [1]: 5.0%
- Fik Kinase %Inhibition [2]: 2.4%

SMILES: O=C1Nc2ccc(CCCl)cc2C1=Cc1ccccc1O [10720/G05]
- Met Kinase % Inhibition [1]: 37.0%
- Fik Kinase %Inhibition [2]: -2.9%

SMILES: O=C1Nc2ccc(CCCl)cc2C1=Cc1ccccc1 [10720/G06]
- Met Kinase % Inhibition [1]: 21.6%
- Fik Kinase %Inhibition [2]: -3.4%

SMILES: CSc1ccc(C=C2C(=O)Nc3ccc(CCCl)cc32)s1 [10720/G07]
- Met Kinase % Inhibition [1]: 12.9%
- Fik Kinase %Inhibition [2]: 5.1%

SMILES: Cc1cc(O)cc(O)c1C=C1C(=O)Nc2ccc(CCCl)cc21 [10720/G08]
- Met Kinase % Inhibition [1]: 26.7%
- Fik Kinase %Inhibition [2]: -17.9%

SMILES: CCOc1cc(C=C2C(=O)Nc3ccc(CCCl)cc32)ccc1O [10720/G09]
- Met Kinase % Inhibition [1]: 49.5%
- Fik Kinase %Inhibition [2]: 2.1%

SMILES: COc1ccc(O)c(C=C2C(=O)Nc3ccc(CCCl)cc32)c1 [10720/G10]
- Met Kinase % Inhibition [1]: 55.9%
- Fik Kinase %Inhibition [2]: -36.6%

SMILES: O=C1Nc2ccc(CCCl)cc2C1=Cc1ncc[nH]1 [10720/G11]
- Met Kinase % Inhibition [1]: 36.2%
- Fik Kinase %Inhibition [2]: -18.0%

SMILES: Cn1c(C=C2C(=O)Nc3c(Br)cc(Br)cc32)nc2ccccc21 [10721/A02]
- Met Kinase % Inhibition [1]: 41.1%
- Fik Kinase %Inhibition [2]: 10.6%

SMILES: Cn1cc(Cl)c(C=C2C(=O)Nc3c(Br)cc(Br)cc32)n1 [10721/A03]
- Met Kinase % Inhibition [1]: 56.2%
- Fik Kinase %Inhibition [2]: 11.4%

SMILES: Cc1cc(C=C2C(=O)Nc3c(Br)cc(Br)cc32)sc1C [10721/A04]
- Met Kinase % Inhibition [1]: 85.0%
- Fik Kinase %Inhibition [2]: 6.5%

SMILES: O=C1Nc2c(Br)cc(Br)cc2C1=Cc1cc2c([nH]1)CCCC2 [10721/A05]
- Met Kinase % Inhibition [1]: 52.9%
- Fik Kinase %Inhibition [2]: 12.5%

SMILES: O=C1Nc2c(Br)cc(Br)cc2C1=Cc1cc([N+](=O)[O-])cc(CCl)c1O [10721/A06]
- Met Kinase % Inhibition [1]: 81.3%
- Fik Kinase %Inhibition [2]: 6.4%

SMILES: O=C1Nc2c(Br)cc(Br)cc2C1=Cc1ccc(Cl)s1 [10721/A07]
- Met Kinase % Inhibition [1]: 29.7%
- Fik Kinase %Inhibition [2]: -4.7%

SMILES: Cc1cc(C)c(C=C2C(=O)Nc3c(Br)cc(Br)cc32)[nH]1 [10721/A08]
- Met Kinase % Inhibition [1]: 29.9%
- Fik Kinase %Inhibition [2]: 4.8%

SMILES: CC(C)(C)c1cc(C=C2C(=O)Nc3c(Br)cc(Br)cc32)ccc1O [10721/A09]
- Met Kinase % Inhibition [1]: 23.0%
- Fik Kinase %Inhibition [2]: 10.9%

SMILES: CC(C)(C)c1cc(C=C2C(=O)Nc3c(Br)cc(Br)cc32)cc(Br)c1O [10721/A10]
- Met Kinase % Inhibition [1]: 68.9%
- Fik Kinase %Inhibition [2]: 5.2%

SMILES: CC(C)(C)c1cc(C=C2C(=O)Nc3c(Br)cc(Br)cc32)cc(C(C)(C)C)c1O [10721/A11]
- Met Kinase % Inhibition [1]: 23.9%
- Fik Kinase %Inhibition [2]: 4.8%

SMILES: O=C1Nc2ccc(I)cc2C1=Cc1cc2c([nH]1)CCCC2 [10721/B05]
- Met Kinase % Inhibition [1]: 70.8%
- Fik Kinase %Inhibition [2]: 45.9%

SMILES: Cc1cc(C)c(C=C2C(=O)Nc3ccc(I)cc32)[nH]1 [10721/B08]
- Met Kinase % Inhibition [1]: 64.5%
- Fik Kinase %Inhibition [2]: 18.5%

SMILES: CC(C)(C)c1cc(C=C2C(=O)Nc3ccc(I)cc32)ccc1O [10721/B09]
- Met Kinase % Inhibition [1]: 28.3%
- Fik Kinase %Inhibition [2]: 9.0%

SMILES: CC(C)(C)c1cc(C=C2C(=O)Nc3ccc(I)cc32)cc(Br)c1O [10721/B10]
- Met Kinase % Inhibition [1]: 30.4%
- Fik Kinase %Inhibition [2]: 20.9%
